From ChEMBL document CHEMBL4825753 (J Med Chem, 2021)

Key:
[1] = target: T1, Receptor-type tyrosine-protein kinase FLT3 (Homo sapiens, UniProt P36888); assay: Inhibition of FLAG-tagged FLT3 (unknown origin) transfected in Cos-7 cells assessed as phosphorylation level incubated for 1 hr by ELISA; assay type: cell-based
T1 sequence (P36888 whole entry): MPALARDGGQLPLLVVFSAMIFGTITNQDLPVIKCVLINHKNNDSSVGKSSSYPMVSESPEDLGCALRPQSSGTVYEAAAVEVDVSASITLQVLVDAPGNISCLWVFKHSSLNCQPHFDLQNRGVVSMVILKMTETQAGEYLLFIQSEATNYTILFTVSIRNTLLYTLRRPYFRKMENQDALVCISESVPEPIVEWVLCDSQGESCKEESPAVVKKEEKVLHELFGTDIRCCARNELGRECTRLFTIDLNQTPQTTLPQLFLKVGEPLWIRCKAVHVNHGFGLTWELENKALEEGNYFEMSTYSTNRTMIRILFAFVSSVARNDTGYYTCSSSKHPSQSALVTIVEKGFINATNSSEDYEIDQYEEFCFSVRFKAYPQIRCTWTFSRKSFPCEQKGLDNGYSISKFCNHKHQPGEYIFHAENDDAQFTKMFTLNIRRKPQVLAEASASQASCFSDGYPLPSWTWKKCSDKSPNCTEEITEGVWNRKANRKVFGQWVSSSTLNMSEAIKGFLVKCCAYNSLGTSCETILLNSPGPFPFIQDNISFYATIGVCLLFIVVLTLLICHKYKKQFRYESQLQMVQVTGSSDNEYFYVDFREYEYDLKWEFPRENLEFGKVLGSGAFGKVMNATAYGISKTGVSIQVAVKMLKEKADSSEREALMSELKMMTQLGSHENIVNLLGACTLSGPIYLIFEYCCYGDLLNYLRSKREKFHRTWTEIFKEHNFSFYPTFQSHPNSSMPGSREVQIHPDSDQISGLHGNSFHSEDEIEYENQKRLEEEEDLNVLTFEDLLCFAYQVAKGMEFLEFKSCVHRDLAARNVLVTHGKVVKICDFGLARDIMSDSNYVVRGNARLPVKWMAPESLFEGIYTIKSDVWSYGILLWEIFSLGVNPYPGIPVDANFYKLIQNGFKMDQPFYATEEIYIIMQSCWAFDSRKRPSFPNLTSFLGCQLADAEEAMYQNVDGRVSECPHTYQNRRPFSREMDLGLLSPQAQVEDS

[2] = target: T1, Receptor-type tyrosine-protein kinase FLT3; assay: Inhibition of FLT3 (unknown origin) by LC-MS analysis
[3] = Lipophilicity, log D of the compound at pH 7.4; assay type: physicochemical; conditions: buffer
[4] = target: T2, Tyrosine-protein kinase receptor UFO (Homo sapiens, UniProt P30530); assay: Inhibition of AXL (unknown origin) by LC-MS analysis
T2 sequence (P30530 whole entry): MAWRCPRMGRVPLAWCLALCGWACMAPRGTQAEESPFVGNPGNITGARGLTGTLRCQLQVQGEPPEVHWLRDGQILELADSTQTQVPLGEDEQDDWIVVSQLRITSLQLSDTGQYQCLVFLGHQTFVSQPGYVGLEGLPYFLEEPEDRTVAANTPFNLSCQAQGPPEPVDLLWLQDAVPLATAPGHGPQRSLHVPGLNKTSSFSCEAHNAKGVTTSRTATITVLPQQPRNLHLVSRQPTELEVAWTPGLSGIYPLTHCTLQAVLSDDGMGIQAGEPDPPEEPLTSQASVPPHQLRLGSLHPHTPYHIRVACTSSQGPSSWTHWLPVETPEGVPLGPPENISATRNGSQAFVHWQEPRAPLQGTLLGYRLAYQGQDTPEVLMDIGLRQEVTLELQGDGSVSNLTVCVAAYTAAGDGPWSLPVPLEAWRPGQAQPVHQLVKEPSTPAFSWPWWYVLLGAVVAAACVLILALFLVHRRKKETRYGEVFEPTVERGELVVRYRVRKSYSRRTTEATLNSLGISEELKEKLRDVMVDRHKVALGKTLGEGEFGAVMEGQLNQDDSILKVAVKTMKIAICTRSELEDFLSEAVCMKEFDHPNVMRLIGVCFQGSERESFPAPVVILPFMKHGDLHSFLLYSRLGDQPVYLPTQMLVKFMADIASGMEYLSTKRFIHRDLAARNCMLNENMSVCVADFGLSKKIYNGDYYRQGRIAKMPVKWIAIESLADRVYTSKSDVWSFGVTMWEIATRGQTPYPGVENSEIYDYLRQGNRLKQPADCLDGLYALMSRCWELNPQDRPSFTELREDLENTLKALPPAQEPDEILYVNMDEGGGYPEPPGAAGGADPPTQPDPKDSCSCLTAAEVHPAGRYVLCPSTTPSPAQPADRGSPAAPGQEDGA

[5] = target: T3, Tyrosine-protein kinase Mer (Homo sapiens, UniProt Q12866); assay: Inhibition of MER (unknown origin) by LC-MS analysis
T3 sequence (Q12866 whole entry): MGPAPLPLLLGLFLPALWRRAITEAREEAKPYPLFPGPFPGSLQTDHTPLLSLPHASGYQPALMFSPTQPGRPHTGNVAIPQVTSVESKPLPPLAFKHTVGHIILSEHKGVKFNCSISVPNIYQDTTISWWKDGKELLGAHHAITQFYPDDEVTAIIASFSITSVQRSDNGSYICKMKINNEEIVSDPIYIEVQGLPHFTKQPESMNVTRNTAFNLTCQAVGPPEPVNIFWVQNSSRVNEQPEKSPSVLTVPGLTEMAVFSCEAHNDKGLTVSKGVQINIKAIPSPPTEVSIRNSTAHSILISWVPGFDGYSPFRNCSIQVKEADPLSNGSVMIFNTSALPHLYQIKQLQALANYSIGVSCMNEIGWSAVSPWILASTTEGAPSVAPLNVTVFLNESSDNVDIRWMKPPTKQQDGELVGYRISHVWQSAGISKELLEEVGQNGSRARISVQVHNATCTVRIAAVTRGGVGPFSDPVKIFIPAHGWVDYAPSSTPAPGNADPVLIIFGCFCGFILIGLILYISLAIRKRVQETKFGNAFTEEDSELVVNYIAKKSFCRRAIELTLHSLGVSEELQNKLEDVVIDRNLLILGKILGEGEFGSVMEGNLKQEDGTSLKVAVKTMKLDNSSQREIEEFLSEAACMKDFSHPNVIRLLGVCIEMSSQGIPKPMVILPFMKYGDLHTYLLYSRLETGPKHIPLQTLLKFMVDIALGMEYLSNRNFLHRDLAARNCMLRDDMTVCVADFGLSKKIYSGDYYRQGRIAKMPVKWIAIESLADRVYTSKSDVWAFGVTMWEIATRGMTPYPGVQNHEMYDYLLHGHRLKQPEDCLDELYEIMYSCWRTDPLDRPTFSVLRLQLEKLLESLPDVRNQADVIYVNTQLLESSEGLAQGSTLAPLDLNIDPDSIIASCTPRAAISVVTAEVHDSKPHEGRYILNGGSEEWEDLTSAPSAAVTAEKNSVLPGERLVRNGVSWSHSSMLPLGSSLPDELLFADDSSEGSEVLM

[6] = target: T2, Tyrosine-protein kinase receptor UFO; assay: Inhibition of FLAG-tagged AXL (unknown origin) transfected in Cos-7 cells assessed as phosphorylation level incubated for 1 hr by ELISA; assay type: cell-based

SMILES	IC50 [1]	IC50 [2]	logD [3]	IC50 [4]	IC50 [5]	IC50 [6]
CN(Cc1ccc2nccn2c1)c1nnc(-c2ccc(C3CC3)cc2)o1		25.1 µM	3.5	20 µM	0.794 µM	
Cc1nn(C)c(C)c1-c1ccc(-c2nnc(N(C)Cc3ccc4nccn4c3)o2)c(Cl)c1	> 31.6 µM	20 µM	3.3	0.0794 µM	0.00251 µM	0.794 µM
COc1ccccc1-c1ccc(-c2nnc(N(C)Cc3ccc4nccn4c3)o2)cc1		50.1 µM	4.1	1.58 µM	0.0316 µM	
COc1cc(-c2c(C)nn(C)c2C)ccc1-c1nnc(N(C)Cc2ccc3nccn3c2)o1	> 31.6 µM	39.8 µM	2.9	0.794 µM	0.0158 µM	2 µM
Cc1cc(-c2c(C)nn(C(F)F)c2C)ccc1-c1nnc(N(C)Cc2ccc3nccn3c2)o1	> 31.6 µM	100 µM	4.1	63.1 µM	0.501 µM	> 10 µM
CN(Cc1ccc2nccn2c1)c1nnc(-c2ccccc2)o1		> 100 µM	2.4	> 100 µM	15.8 µM	
Cc1ccccc1-c1ccc(-c2nnc(N(C)Cc3ccc4nccn4c3)o2)cc1		1 µM	4.7	0.631 µM	0.0126 µM	
Cc1noc(C)c1-c1ccc(-c2nnc(N(C)Cc3ccc4nccn4c3)o2)cc1		39.8 µM	3.1	31.6 µM	0.2 µM	
CN(Cc1ccc2nccn2c1)c1nnc(-c2ccc(-c3ccccc3)cc2)o1		25.1 µM	3.9	3.16 µM	0.0398 µM	
Cc1cc(-c2c(C#N)nn(C)c2C)ccc1-c1nnc(N(C)Cc2ccc3nccn3c2)o1		25.1 µM	3.4	6.31 µM	0.0316 µM	6.31 µM
CN(Cc1ccc2nccn2c1)c1nnc(-c2ccc(-c3ccccc3C#N)cc2)o1		10 µM	3.6	3.98 µM	0.0251 µM	
Cc1nn(C)c(C)c1-c1ccc(-c2nnc(N(C)Cc3ccc4nccn4c3)o2)c(F)c1	> 31.6 µM	> 100 µM	3.2	1.26 µM	0.0126 µM	3.16 µM
Cc1nn(C)c(C)c1-c1ccc(-c2nnc(N(C)Cc3ccc4nccn4c3)o2)cc1		> 63.1 µM	3.1	1.26 µM	0.0316 µM	3.16 µM
CN(Cc1ccc2nccn2c1)c1nnc(-c2ccc(-c3ccccc3F)cc2)o1		50.1 µM	4.4	1.58 µM	0.0158 µM	
Cc1cc(-c2c(C)nn(C)c2C#N)ccc1-c1nnc(N(C)Cc2ccc3nccn3c2)o1	> 31.6 µM	15.8 µM	3.8	0.0398 µM	0.00158 µM	0.398 µM

Now from value to molecule:

IC50 [1]	IC50 [2]	logD [3]	IC50 [4]	IC50 [5]	IC50 [6]	SMILES
> 50.1 µM	39.8 µM	2.6	3.98 µM	0.0398 µM	5.01 µM	Cc1cc(-c2c(C)nc(C)n2C)ccc1-c1nnc(N(C)Cc2ccc3nccn3c2)o1
7.94 µM	39.8 µM	3.8	5.01 µM	0.0398 µM	15.8 µM	Cc1cc(-c2c(C)n[nH]c2C)ccc1-c1nnc(N(C)Cc2ccc3nccn3c2)o1
	20 µM	3.1	6.31 µM	0.0501 µM		Cc1ncccc1-c1ccc(-c2nnc(N(C)Cc3ccc4nccn4c3)o2)cc1
> 31.6 µM	79.4 µM	2.9	> 100 µM	100 µM	> 31.6 µM	Cc1nn(C)c(C)c1-c1ccc(-c2nnc(N(C)Cc3ccc4nccn4c3)o2)c(C#N)c1
		4.7				CN(Cc1ccc2nccn2c1)c1nnc(-c2ccc(-c3ccccc3Cl)cc2)o1
> 31.6 µM	> 100 µM	2.5	3.16 µM	0.0631 µM	10 µM	Cc1nc(-c2c(C)nn(C)c2C)ccc1-c1nnc(N(C)Cc2ccc3nccn3c2)o1
> 31.6 µM	63.1 µM	3.4	0.1 µM	0.002 µM	0.794 µM	Cc1cc(-c2cnn(C)c2C)ccc1-c1nnc(N(C)Cc2ccc3nccn3c2)o1
